Measurements from article PMC9857510, “Identification of Immune-Active Peptides in Casein Hydrolysates and Its Transport Mechanism on a Caco-2 Monolayer” (Foods, 2023).
Where two headings read alike, the source gives them in different places. Residues, ends and D or L forms follow the SMILES beside them. No end group written: not given here.

What was measured:
[1] = system: Caco-2 cell monolayer; experiment: Absorption mechanism: phenylarsine oxide (endocytosis) and sodium deoxycholate (bypass transport) pre-incubation; format: in vitro ADME, human
Experimental: (§1) After 0.5 mL of 10 mM Gly-Pro, 0.1 mM sodium deoxycholate and 0.025 mM phenylarsine oxide were added to different wells on the AP side, and the Transwell plates were incubated in a CO2 incubator for 30 min and followed by the removal of these compounds. The peptides were then added to the AP side, and Hank’s Balanced Salt Solution (HBSS) buffer was added to the BL side, and samples were collected after 2 h.

[2] = target: T1, MRP2 (Homo sapiens, UniProt Q92887); experiment: Peptide efflux: MK-571 sodium salt pre-incubation; format: in vitro ADME; conditions: 0.05 mM MK-571 sodium salt, AP-BL, 2 h, vs blank
T1 construct: Multidrug resistance protein (MRP) and P-glycoprotein in Caco-2 cells are energy-dependent efflux transporters; endogenous in cells; host or cells: Caco-2
T1 sequence (Q92887 whole entry): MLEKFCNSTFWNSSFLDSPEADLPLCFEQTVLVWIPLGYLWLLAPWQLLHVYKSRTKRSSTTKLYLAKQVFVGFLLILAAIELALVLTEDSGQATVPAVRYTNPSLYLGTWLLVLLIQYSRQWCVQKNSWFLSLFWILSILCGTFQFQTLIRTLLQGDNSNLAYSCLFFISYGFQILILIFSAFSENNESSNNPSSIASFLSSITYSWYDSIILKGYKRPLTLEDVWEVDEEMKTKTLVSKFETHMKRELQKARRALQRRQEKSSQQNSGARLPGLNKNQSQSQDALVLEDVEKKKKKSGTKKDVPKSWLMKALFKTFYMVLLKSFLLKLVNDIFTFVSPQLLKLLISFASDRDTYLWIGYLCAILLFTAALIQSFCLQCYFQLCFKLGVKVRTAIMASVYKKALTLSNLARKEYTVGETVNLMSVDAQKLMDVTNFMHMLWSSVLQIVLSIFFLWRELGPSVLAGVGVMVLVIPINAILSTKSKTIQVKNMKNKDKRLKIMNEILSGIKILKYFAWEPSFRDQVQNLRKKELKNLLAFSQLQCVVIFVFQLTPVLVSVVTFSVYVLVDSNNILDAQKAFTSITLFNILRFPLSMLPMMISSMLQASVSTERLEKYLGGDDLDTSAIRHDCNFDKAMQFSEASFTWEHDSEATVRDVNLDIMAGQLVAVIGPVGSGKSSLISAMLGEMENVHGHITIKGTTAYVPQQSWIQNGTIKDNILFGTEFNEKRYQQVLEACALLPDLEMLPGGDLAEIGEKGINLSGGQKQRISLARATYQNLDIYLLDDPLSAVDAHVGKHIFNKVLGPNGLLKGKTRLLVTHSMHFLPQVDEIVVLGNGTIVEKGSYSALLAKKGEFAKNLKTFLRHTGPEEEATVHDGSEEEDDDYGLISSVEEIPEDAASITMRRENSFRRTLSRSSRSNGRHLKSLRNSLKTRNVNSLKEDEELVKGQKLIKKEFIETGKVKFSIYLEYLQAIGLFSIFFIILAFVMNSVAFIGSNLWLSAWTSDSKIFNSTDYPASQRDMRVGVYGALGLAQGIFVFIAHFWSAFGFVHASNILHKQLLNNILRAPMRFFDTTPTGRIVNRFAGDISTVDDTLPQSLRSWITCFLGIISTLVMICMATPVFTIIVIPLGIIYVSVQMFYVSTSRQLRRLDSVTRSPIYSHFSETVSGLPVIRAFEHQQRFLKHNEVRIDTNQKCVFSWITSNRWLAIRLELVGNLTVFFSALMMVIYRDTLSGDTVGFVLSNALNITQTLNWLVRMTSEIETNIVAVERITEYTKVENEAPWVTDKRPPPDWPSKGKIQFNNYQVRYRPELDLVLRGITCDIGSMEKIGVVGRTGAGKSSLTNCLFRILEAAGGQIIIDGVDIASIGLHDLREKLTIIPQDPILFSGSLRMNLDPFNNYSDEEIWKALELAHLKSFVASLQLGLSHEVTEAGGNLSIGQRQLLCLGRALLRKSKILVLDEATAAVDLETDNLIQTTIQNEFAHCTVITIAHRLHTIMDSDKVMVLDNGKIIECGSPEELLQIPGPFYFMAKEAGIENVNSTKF
Experimental: (§2) In total, 0.5 mL of 0.05 mM MK-571 sodium salt, 0.1 mM verapamil, and 10 mM sodium azide were added to the AP side hole of the Transwell plate and incubated in a CO2 incubator for 30 min. After this incubation, the compounds were removed, the peptide was added to the AP side, and HBSS buffer was added to the BL side for 2 h.

[3] = target: T2, P-glycoprotein (Homo sapiens, UniProt P08183); experiment: Peptide efflux: verapamil pre-incubation; format: in vitro ADME; conditions: 0.1 mM verapamil, AP-BL, 2 h, vs blank
T2 construct: Multidrug resistance protein (MRP) and P-glycoprotein in Caco-2 cells are energy-dependent efflux transporters; endogenous in cells; host or cells: Caco-2
T2 sequence (P08183 whole entry): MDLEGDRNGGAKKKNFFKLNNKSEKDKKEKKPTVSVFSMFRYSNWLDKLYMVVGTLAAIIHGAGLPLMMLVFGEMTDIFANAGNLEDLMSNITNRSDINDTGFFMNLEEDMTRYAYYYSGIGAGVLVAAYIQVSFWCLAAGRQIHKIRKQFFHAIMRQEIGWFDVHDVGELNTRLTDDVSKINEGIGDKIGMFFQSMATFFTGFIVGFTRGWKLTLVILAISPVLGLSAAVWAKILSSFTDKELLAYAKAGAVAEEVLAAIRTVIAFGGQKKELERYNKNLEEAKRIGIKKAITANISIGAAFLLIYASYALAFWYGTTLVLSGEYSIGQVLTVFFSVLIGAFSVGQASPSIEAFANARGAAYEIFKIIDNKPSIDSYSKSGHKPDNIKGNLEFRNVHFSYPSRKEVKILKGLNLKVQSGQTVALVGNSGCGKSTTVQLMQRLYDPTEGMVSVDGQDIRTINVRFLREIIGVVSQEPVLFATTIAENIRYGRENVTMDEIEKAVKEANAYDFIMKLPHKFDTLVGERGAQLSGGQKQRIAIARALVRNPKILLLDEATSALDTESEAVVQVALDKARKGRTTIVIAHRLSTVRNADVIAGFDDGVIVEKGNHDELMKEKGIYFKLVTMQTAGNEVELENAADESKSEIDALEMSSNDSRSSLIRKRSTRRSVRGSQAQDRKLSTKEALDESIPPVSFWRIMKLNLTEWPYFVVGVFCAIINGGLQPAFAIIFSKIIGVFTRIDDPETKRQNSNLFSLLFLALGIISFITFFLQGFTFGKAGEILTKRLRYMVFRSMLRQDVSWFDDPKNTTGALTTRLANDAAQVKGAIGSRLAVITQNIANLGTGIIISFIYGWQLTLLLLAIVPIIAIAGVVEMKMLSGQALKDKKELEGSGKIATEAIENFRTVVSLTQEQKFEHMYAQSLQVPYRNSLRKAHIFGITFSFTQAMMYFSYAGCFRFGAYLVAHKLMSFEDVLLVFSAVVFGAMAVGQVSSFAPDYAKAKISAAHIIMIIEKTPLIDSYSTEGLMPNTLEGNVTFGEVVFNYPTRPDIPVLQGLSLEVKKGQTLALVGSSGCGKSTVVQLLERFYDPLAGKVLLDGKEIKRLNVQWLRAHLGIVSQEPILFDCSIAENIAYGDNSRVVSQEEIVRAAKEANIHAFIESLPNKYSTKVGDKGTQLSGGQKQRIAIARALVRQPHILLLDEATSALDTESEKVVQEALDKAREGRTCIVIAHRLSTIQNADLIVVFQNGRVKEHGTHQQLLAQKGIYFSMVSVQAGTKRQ
Experimental: as §2

[4] = system: Caco-2 cell monolayer; experiment: Peptide efflux: sodium azide pre-incubation (ATP production); format: in vitro ADME, human; conditions: 10 mM sodium azide, AP-BL, 2 h, vs blank
Experimental: as §2

[5] = target: T3, Peptide transporter 1 (Pep T1) (Homo sapiens, UniProt P46059); experiment: Absorption mechanism: Gly-Pro pre-incubation (carrier transport); format: in vitro ADME; conditions: 10 mM Gly-Pro, 30 min pre-incubation, 2 h transport, vs blank
T3 construct: endogenous in cells; host or cells: Caco-2
T3 sequence (P46059 1-708): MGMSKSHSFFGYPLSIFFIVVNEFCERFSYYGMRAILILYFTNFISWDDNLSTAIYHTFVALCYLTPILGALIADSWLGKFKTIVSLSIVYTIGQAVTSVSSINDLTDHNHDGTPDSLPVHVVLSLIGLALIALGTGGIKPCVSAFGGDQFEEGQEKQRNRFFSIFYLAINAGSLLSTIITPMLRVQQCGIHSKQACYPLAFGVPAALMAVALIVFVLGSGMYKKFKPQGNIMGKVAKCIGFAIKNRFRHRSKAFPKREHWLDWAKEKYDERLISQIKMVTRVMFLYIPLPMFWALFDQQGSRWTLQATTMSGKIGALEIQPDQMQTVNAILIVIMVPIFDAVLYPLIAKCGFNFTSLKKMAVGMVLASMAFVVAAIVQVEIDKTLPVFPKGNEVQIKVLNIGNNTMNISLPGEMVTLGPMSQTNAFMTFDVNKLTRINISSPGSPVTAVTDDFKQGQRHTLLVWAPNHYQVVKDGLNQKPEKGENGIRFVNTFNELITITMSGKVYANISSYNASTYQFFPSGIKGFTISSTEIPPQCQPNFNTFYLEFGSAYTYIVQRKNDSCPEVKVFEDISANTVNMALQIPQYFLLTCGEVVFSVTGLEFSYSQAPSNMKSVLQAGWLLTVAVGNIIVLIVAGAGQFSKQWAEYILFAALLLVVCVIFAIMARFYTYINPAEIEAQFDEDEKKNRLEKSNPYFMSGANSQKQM
Experimental: as §1

[6] = system: Caco-2 cell monolayer; experiment: Transport assay on Caco-2 cell monolayer (Transwell, RP-HPLC quantification)
Experimental: (§3) Reverse phase high-performance liquid chromatography (RP-HPLC) was used to analyze the composition of peptides passed through the Caco-2 cell membrane. The elution parameters were as follows: the mobile phase B was ultra-pure water containing 0.1% Trifluoroacetic acid (TFA), and mobile phase A contained acetonitrile supplemented with 0.1% TFA. Adopting a gradient elution method, in detail, at 0.01 min, mobile phase A was 5%; at 25 min, mobile phase A was 70%. The absorbance of RP-HPLC was detected at 220 nm. The peak yields of the five electroactive peptides at the concentrations of 0.5 mM, 0.2 mM, 0.1 mM, 0.05 mM, and 0.025 mM were detected. The concentration was set as the abscissa and the peak area was set as the ordinate to draw the standard curves of the different peptide segments.
(§4) Caco-2 cells were maintained in an incubator at 37 °C, with 5% CO2 and relative humidity of 90% until the number of cells accounted for 80–90% of confluency [19]. After that, the medium was added to obtain a cellular suspension with 4 × 10^5 cells/mL, which was seeded on a 12-well Transwell plate added to the AP side of the 0.5 mL cell suspension, and the Basal lateral (BL) side by adding 1.5 mL of cell culture medium after one day after the exchange, Then, the fluid was changed every other day for 6 days, and the fluid was changed every day until the culture was completed. […] The main detection indicators were: (1) cell morphology observation; (2) the cell membrane compactness using fluorescent yellow test; (3) the detection of single-cell membrane resistance [20]; (4) alkaline phosphatase activities at the top and the basal side of the cell membrane were detected respectively to preliminarily determine the polarity of it.
(§5) The Papp formula of fluorescence is as follows:(2) Papp=dQ/dt/A×C0 where: C0—Initial concentration of fluorescent yellow (mg/mL); A—Membrane surface area (cm^2); dQ/dt—Transport of fluorescent yellow per unit time; Papp—Apparent permeability coefficient.

[7] = system: Caco-2 cell monolayer; experiment: Integrity of peptides after passing the Caco-2 monolayer (RP-HPLC, LC-MS/MS); format: in vitro ADME, human; conditions: for integrity of the peptide after passing through the Caco-2 cell membrane: RP-HPLC and LC/MS of BL-side liquid; for Concentration (ppm): peptide and fragments found by LC-MS in the liquid that passed the membrane, parents RYPLGYL, KHPIK, FFSDK
[8] = in vitro; conditions: human, Caco-2, pH 7.4
Experimental: as §3, §4, §5

[9] = system: Caco-2 cell monolayer
Experimental: as §3, §4, §5

| Compound | main transport mechanism in intestinal epithelial cells [1] | integrity of the peptide after passing through the Caco-2 cell membrane [7] | Concentration (ppm) [7] [ppm] | Papp A→B at 2 h, 5 mM [8] [×10⁻⁶ cm/s] | further results |
| --- | --- | --- | --- | --- | --- |
| N[C@@H](Cc1ccc(O)cc1)C(=O)NCC(=O)NCC(=O)O [YGG, Tyr-Gly-Gly] (H-Tyr-Gly-Gly-OH; N-terminus and C-terminus assumed) |  |  |  |  | main transport mechanism in intestinal epithelial cells ([1]; Caco-2 monolayer): bypass diffusion; effect of MK-571 sodium salt on transmembrane transport [2]: no significant differences; effect of verapamil on transmembrane transport [3]: significantly promote; effect of sodium azide on concentration on the BL side [4]: slightly higher; effect of Gly-Pro on transport to the BL side [5]: no significant differences |
| NNC(=O)NN1C(=O)c2cc(S(=O)(=O)[O-])cc3c(N)c(S(=O)(=O)[O-])cc(c23)C1=O.[Li+].[Li+] [fluorescence yellow] |  |  |  |  | Papp of fluorescence yellow ([6]; Caco-2 monolayer density check): 0.607 ×10⁻⁶ cm/s; increase of transmittance ([6]; experimental group (Caco-2 monolayer), from 0.5 h to 2.5 h): 1.6% |
| FFSDK [FFSDK, Phe-Phe-Ser-Asp-Lys] | bypass diffusion | Most of the KHPIK and FFSDK were hydrolyzed into KHP and FFS | 2.59 | 0.491 |  |
| KHPIK [KHPIK, Lys-His-Pro-Ile- Lys] | bypass diffusion | Most of the KHPIK and FFSDK were hydrolyzed into KHP and FFS | 2.59 | 0.322 | amount across the membrane versus time ([9]; Caco-2): increased slowly; amount transported versus time ([9]; Caco-2): increased rapidly; transport quantity BL-AP side compared with AP-BL side ([9]; Caco-2): significantly lower; transmembrane transport capacity on the BL side ([9]; Caco-2, pH 6): 23.14 µM; transmembrane transport capacity on the BL side ([9]; Caco-2, pH 7): greater than 30.01 μM; transmembrane transport capacity on the BL side ([9]; Caco-2, pH 7.4): 44.35 µM |
| KHPIKH [KHPIKH, Lys-His-Pro-Ile-Lys-His] | bypass diffusion |  |  | 0.26 |  |
| RYPLGYL [RYPLGYL, Arg-Tyr-Pro-Leu-Gly-Tyr-Leu] | bypass diffusion | resistant to the enzymatic hydrolysis of intestinal epithelial cells | 10.74 | 0.161 |  |
